Measured values from a melting point compilation (Tetko et al.; mined from patent text by program, amines drawn as free bases though some values may be those of a salt).

Compared with `NS(=O)(=O)c1ccc(-n2nc(CC(=O)O)cc2-c2ccc(Cl)cc2)cc1`, `CC(C)CCc1c(-c2ccc(S(N)(=O)=O)cc2)cnn(-c2ccc(F)c(Cl)c2)c1=O` is higher in melting point: 120 to 122 °C for the first, 154 to 156 °C for the second.

`CNC1Oc2cc(Cl)cc(-c3cc(F)ccc3F)c2O1` (stereo not drawn) and `NCC1Cc2cc(Cl)cc(-c3cccnc3)c2O1` (stereo not drawn) cannot be ordered by melting point: > 250 °C for the first, > 250 °C for the second.

First: Clc1ccc(-n2nc3cc(Cl)ccc3c2Cl)c(Cl)c1
Second: N#Cc1nc(Cl)c(-c2c(F)cccc2Cl)c(Cl)c1Br
The melting point of the first is higher: 120 °C for the first, 90 °C for the second.

Compared with `O=C1NCc2c(Oc3ccccc3)cccc2N1Cc1ccccc1`, `O=C(O)c1nccc(OCc2ccccc2)c1OCc1ccccc1` is lower in melting point: 171 to 173 °C for the first, 120 °C for the second.

First: O=c1nc(N2CCC(O)CC2)sc2ncccc12
Second: O=C1C(=Cc2ccccc2)N2CCC1C2 (stereo not drawn)
The melting point of the first is higher: 206 to 207 °C for the first, 61 to 63 °C for the second.

First: CN(C)CC(=O)NCc1cccc(-c2csc(N=C(N)N)n2)n1
Second: CCOC(=O)C1=C(C)NC(c2csc(Cl)n2)=NC1c1ccc(F)cc1Cl (stereo not drawn)
The melting point of the first is higher: 199 °C for the first, 141 to 143 °C for the second.

First: C=CCc1c(Cl)nc(NC=O)nc1Cl
Second: C=CCONC(=O)c1nc(-c2ccc(Cl)c(OC)c2F)c(F)c(N)c1Cl
The melting point of the first is lower: 85 to 86 °C for the first, 184 to 186 °C for the second.

Compared with `CC(=O)C1=C(O)C(=C(C)Nc2ccc(N)cc2)C(=O)OC1=O`, `Cc1cc(NC(=O)C2=C(O)c3ccccc3N(c3ccccc3)C2)no1` is lower in melting point: 215 to 218 °C for the first, 148 to 150 °C for the second.

First: C[C@@H]1Oc2ccccc2C(=O)[C@H]1n1ccnc1 (relative stereo)
Second: c1ccc(C2CC(n3ccnc3)c3ccccc3N2)cc1 (stereo not drawn)
The melting point of the first is lower: 144 to 146 °C for the first, 170 to 172 °C for the second.

First: O=C1c2ccccc2OC2=CCON12
Second: CC(C)(C)c1cc(N2Cc3ccccc3C2=O)cc(C(C)(C)C)c1O
The melting point of the first is lower: 144 to 148 °C for the first, 205 to 207 °C for the second.

Compared with `N#CCOc1cccc(CN2C(=O)c3cccc(NC(=O)c4ccc(Cl)s4)c3C2=O)c1`, `C=C(C)Sc1oc2cc(OCc3ccccc3)ccc2c(=O)c1-c1ccc(OC)cc1` is lower in melting point: 164 °C for the first, 101 to 102 °C for the second.

First: Cc1ccc2oc(C=Cc3ccc(C(=O)O)cc3)cc(=O)c2c1
Second: Cc1sc(CCc2ccc(C=CC=C3OC(=O)NC3=O)cc2)nc1-c1ccccc1
The melting point of the first is higher: 308 to 312 °C for the first, 161 to 162 °C for the second.

Compared with `Ic1ccc(OCCCCCCCN2CC2)nc1`, `O=C(O)CCN1CCN(c2ccccc2Cl)CC1` is higher in melting point: 41 to 45 °C for the first, 210 to 213 °C for the second.

First: CNc1ccccc1C(C)=O
Second: CCCC(C(=O)NC)n1cc(C)c(-c2ccccc2)n1 (stereo not drawn)
The melting point of the first is lower: 34 to 35 °C for the first, 84 to 86 °C for the second.

First: CC(C)OC(=O)CSc1ncnc2c(O)n(C)nc12
Second: CCN(CC)C(=O)n1cc(F)c(S(=O)(=O)c2c(C)cc(C)cc2C)n1
The melting point of the first is higher: 192 to 194 °C for the first, 109 to 111 °C for the second.

First: CCCCCCCCCCOc1ccc(-c2ccc(CCCCC(C)OC(C)=O)cc2)cc1 (stereo not drawn)
Second: CCCCCCCCCC(=O)Cc1ccc(OCc2ccccc2)c(OCc2ccccc2)c1
The melting point of the first is higher: 75 to 76 °C for the first, 68 °C for the second.

Compared with `O=S(=O)(Nc1ccc2c(OCc3csc(-c4ccccc4Cl)n3)cccc2c1)C(F)(F)F`, `O=C(NCc1ccc(C(F)(F)F)cc1)c1ccnc(NC(=O)c2ccccc2)c1` is higher in melting point: 128 to 129 °C for the first, 165 to 168 °C for the second.

Compared with `COc1ccc2c(-c3ccccc3F)noc2c1I`, `COC(=O)c1[nH]c2ccccc2c1Oc1ccc(Cl)cc1[N+](=O)[O-]` is higher in melting point: 135 to 138 °C for the first, 171 to 172 °C for the second.

First: COS(=O)(=O)c1cc(C(C)(C)C)c(O)c(C(C)(C)C)c1
Second: COC(=O)c1cc(I)cn1[Si](C(C)C)(C(C)C)C(C)C
The melting point of the first is higher: 116 to 118 °C for the first, 81 to 83 °C for the second.

First: CN1CCN(S(=O)(=O)c2ccc([C@@H](CC3CCCC3)C(=O)O)cc2)CC1
Second: CC(C)(C)OC(=O)N1CCC(C(=O)N2CCN(c3ccncn3)CC2)CC1
The melting point of the first is higher: 202 to 203 °C for the first, 159 to 163 °C for the second.

First: CCCCc1ccc2c(c1)-c1[nH]c(C(=O)OC)cc(=O)c1CS2
Second: CCCCC#Cc1cc(C=CCC(=O)O)ccc1OC
The melting point of the first is higher: 144 to 146 °C for the first, 102 °C for the second.

Compared with `CCN(CC)C(=O)c1ccc(C(=C2CC3CCC(C2)N3C)c2ccccc2)cc1`, `CNC(=O)CC(C#Cc1ccccc1)c1ccc(OC)c(OC2CCCC2)c1` (racemic) is lower in melting point: 145 to 147 °C for the first, 127 to 131 °C for the second.

Compared with `O=C(OC1CCC1)N1CCC(c2nc3cc(-c4ccc(-n5cnnn5)cc4F)ccc3o2)CC1`, `CC1CCN(c2ccc(C(=O)Nc3ccc4nc(CN5CCCC5)ccc4c3)cc2)CC1` is higher in melting point: 165 to 169 °C for the first, 200 to 202 °C for the second.

First: CCOC(=O)COc1ccc(N)cc1
Second: CCOC(=O)c1c[nH]nc1-c1cccs1
The melting point of the first is higher: 157 to 158 °C for the first, 123 to 124 °C for the second.

First: COc1c(NS(=O)(=O)c2ccccc2)cccc1C(=O)Nc1ccccc1
Second: CCCCCCCNC(=O)N(C)c1cccc(-c2ccc(CC(Nc3ccccc3C(=O)c3ccccc3)C(=O)O)cc2)c1 (stereo not drawn)
The melting point of the first is higher: 190 to 194 °C for the first, 105 °C for the second.

First: CC(=O)NC1(CCc2ccccc2)CCOC(=O)CC1 (stereo not drawn)
Second: O=C(Nc1ccc2[nH]c(=O)oc2c1)C(=O)N1CCC(Cc2ccccc2)CC1
The melting point of the first is lower: 165 to 167 °C for the first, 190 to 193 °C for the second.

First: CC(=O)C=CC1=C(C)C(=O)CCC1(C)C
Second: CN1C(=O)C2CC2(c2ccc(N(C)C)cc2)C1=O (stereo not drawn)
The melting point of the first is lower: 50 to 51 °C for the first, 140 °C for the second.

Compared with `Cn1c(=O)c2c(nc(Cl)n2Cc2ccccc2I)n(C)c1=O`, `Cn1cnc2c1c1nnc(-c3ccccc3)n1c(=O)n2Cc1ccccc1` is higher in melting point: 178 °C for the first, 255 to 257 °C for the second.

Compared with `CCOc1cc2ncc(C#N)c(Nc3ccc4cc[nH]c4c3)c2cc1OCC`, `COc1ccc2cc(-c3ccnc(N(C)C)n3)cc(NC3CCN(c4ncnc5[nH]nc(Br)c45)CC3)c2c1` is higher in melting point: 128 to 130 °C for the first, 167 to 172 °C for the second.

First: CC(C)(C)OC(=O)NC1COCCCC=CC2CC2(C(=O)NS(=O)(=O)C2CC2)NC(=O)C2CC(OC(=O)c3cccc(Oc4ccccc4)c3)CN2C1=O (stereo not drawn)
Second: O=C(Nc1ccccc1N1CCc2ccccc21)C1CCC1
The melting point of the first is higher: 123 to 125 °C for the first, 81 to 83.5 °C for the second.

First: CC1(C)OC(=C(C#N)C#N)C(C#N)=C1c1ccc(-c2cn(-c3ccccc3)nn2)cc1
Second: Cc1nc(-c2ccccn2)c2nc(-c3ccccc3)cc-2[nH]1
The melting point of the first is higher: 298 °C for the first, 182 to 183 °C for the second.

First: O=C(Nc1ccc(CCCCC2(C(=O)NCC(F)(F)F)c3ccccc3-c3ccccc32)nc1)c1ccccc1
Second: CCCCCc1ccc(-c2ccc(-c3c(C(=O)OC)c4c(c5ccccc35)OC(c3ccccc3)(c3ccc(N(CC)CC)cc3)C=C4)cc2)cc1 (stereo not drawn)
The melting point of the first is lower: 109 to 113 °C for the first, 177 to 178 °C for the second.

First: COc1cc(F)cnc1OCC#Cc1ccc(Cl)nc1
Second: O=C(Nc1ccc(N2CCC2)nc1)c1cc2cc(C(F)(F)F)cnc2n1Cc1cccc(F)c1
The melting point of the first is lower: 101 to 102 °C for the first, 243 to 244 °C for the second.

First: CC=NN(C(=O)c1ccc(Cl)cc1)c1ccc2c(c1)OCO2
Second: CS(=O)(=O)Nc1ccc(C=CC(=O)N2CCc3c([nH]c4ccccc34)C2c2ccc3c(c2)OCO3)cc1 (stereo not drawn)
The melting point of the first is lower: 140 to 142 °C for the first, 203 °C for the second.

Compared with `O=C(O)c1cc2c3c(ccc2[nH]1)OC[C@H](CO)O3`, `Cn1cc(CC(=O)O)c2cc(Br)ccc21` is lower in melting point: 216 to 217 °C for the first, 192 to 194 °C for the second.

First: O=C(O)c1cc(NCc2c(F)c(F)c(C(F)(F)F)c(F)c2F)ccc1OC(=O)C1CCCCC1
Second: ON=C1CCC(C2CCCCC2)=C1c1ccc(F)cc1
The melting point of the first is higher: 190 to 193 °C for the first, 173 to 176 °C for the second.

Compared with `CCCCCCCCCCc1nnn[nH]1`, `CCCCC1(N(C)C)CCC(c2[nH]c3ccccc3c2Cc2ccccc2)CC1` (stereo not drawn) is higher in melting point: 57 to 59 °C for the first, 72 to 78 °C for the second.

First: CCc1nc2cc(S(N)(=O)=O)c(Cl)cc2n1-c1ccc(CCNC(=O)NS(=O)(=O)c2ccc(C)cc2)cc1
Second: CCc1ccc(Sc2nn(-c3ccc(OC)cc3)c(=O)c(C#N)c2C)cc1
The melting point of the first is higher: 163 to 170 °C for the first, 159 to 160 °C for the second.

Compared with `CCOC(=O)C(C)OCc1cc2cc(C(F)(F)F)ccc2n1S(=O)(=O)c1cc(OC)ccc1OC` (stereo not drawn), `COc1ccc(C[C@@H](COC(C)=O)NC(=O)c2ccnc(-n3nc(-c4cccnc4)c4ccccc4c3=O)c2)cc1OC` is lower in melting point: 130 to 132 °C for the first, 85 to 87 °C for the second.

First: O=C1NC(=O)C(S(=O)(=O)c2ccc3ccccc3c2)S1 (stereo not drawn)
Second: CC(=O)OCc1cc2c(c3c1CCC3)C(=O)c1ccccc1C2=O
The melting point of the first is higher: 196 to 197 °C for the first, 160 to 161 °C for the second.

First: S=C(Nc1cccc(Cl)c1)N1CCOC1C1CCCCC1 (stereo not drawn)
Second: O=C(O)C1=Cc2cc(F)c(N3CCC4(CC3)OCCCO4)nc2N(c2ccc(F)cc2F)C1
The melting point of the first is lower: 117 to 119 °C for the first, 177 to 178 °C for the second.

Compared with `COc1ccc(C2CCC(=O)N(CCN(C)C)c3ccccc3C2=O)cc1` (stereo not drawn), `COC1=C(C(=O)c2ccc(C)cc2)C(c2ccc(C(C)C)cc2)N(c2ccc(C)nn2)C1=O` (stereo not drawn) is higher in melting point: 116 to 117 °C for the first, 248 to 249 °C for the second.

Compared with `COc1cc2cc(C(=O)CCC(=O)O)sc2cc1OC`, `COC1=C(c2ccccc2)C(CC(=O)O)OC1=O` (stereo not drawn) is lower in melting point: 177 to 178 °C for the first, 159 to 160 °C for the second.

Compared with `CC(CS)C(=O)N(CC(=O)O)C1CCCCC1` (stereo not drawn), `C=CC[C@H]1CC(C(=O)OCC[Si](C)(C)C)=C[C@@H](OC(C)C)[C@@H]1NC(C)=O` is lower in melting point: 158 to 160 °C for the first, 64 to 65 °C for the second.

First: CN1C(=O)C(c2cccc(-c3cncnc3)c2)(c2cscn2)N=C1N (stereo not drawn)
Second: COc1ccc(-c2[nH]c(-c3ccc(N)c(C)c3)nc2C(=O)Nc2nccs2)cc1
The melting point of the first is lower: 234 to 237 °C for the first, > 250 °C for the second.

Compared with `CC(=O)OCC1OC(n2c(Cl)nc3cc(F)c(F)cc32)C(OC(C)=O)C1OC(C)=O` (stereo not drawn), `CNC(=O)[C@H]1S[C@@H](n2cnc3c(N)nc(Cl)nc32)[C@H](O)[C@@H]1O` is higher in melting point: 90 to 91 °C for the first, 233 to 235 °C for the second.

Compared with `CC(C)=CC(=O)Nc1c(C(O)(C(F)(F)F)C(F)(F)F)ccc2ccccc12`, `Cc1c(C)c2c(c(C)c1NC(=O)CC(C)(C)C)C(c1ccccc1)CO2` (stereo not drawn) is higher in melting point: 135 to 137 °C for the first, 146 to 147 °C for the second.

First: CCOC(OCC)c1[nH]c(C2CC2)nc(=O)c1Cl
Second: C=C(C)c1cc(NC(=O)N2CCN(c3cc(C)cc(C)c3)CC2)c(OC)nc1C
The melting point of the first is lower: 109 to 111 °C for the first, 140 to 142 °C for the second.

First: COc1ccccc1N1CCN([C@H]2Cc3c(OC)ccc(OC)c3C[C@H]2O)CC1 (relative stereo)
Second: CC(C)(C)C(NC(=O)c1ccc(Cl)cc1)NC(=N[N+](=O)[O-])Nc1cccnc1 (stereo not drawn)
The melting point of the first is higher: 213 to 216 °C for the first, 203 to 204 °C for the second.
